18 compounds from ChEMBL document CHEMBL1765090, “Design and evaluation of fragment-like estrogen receptor tetrahydroisoquinoline ligands from a scaffold-detection approach” (J Med Chem, 2011) can be followed below.

Each structure is given as a SMILES string.

The target in test [1] is T1, Estrogen receptor (Homo sapiens, UniProt P03372).
T1 sequence (P03372 whole entry): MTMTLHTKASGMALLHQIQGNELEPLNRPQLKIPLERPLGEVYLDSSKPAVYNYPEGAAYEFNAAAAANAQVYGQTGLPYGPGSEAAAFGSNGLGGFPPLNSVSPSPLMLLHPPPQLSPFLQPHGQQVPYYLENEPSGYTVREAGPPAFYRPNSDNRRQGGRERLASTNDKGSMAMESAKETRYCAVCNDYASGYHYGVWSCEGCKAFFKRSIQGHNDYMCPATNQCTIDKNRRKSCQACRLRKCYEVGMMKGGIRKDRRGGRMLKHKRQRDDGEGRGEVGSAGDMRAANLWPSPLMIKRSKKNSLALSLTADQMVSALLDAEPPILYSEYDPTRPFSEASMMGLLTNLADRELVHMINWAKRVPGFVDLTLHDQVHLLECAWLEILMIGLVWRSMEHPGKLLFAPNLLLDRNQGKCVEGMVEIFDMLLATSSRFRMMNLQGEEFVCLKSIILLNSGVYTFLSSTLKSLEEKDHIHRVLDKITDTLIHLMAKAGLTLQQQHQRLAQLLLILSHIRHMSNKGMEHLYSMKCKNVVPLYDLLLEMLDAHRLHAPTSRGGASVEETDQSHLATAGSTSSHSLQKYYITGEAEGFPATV
Description: (§1) Agonist activity at human N-terminal His6-tagged ERalpha receptor LBD expressed in Escherichia coli BL21 (DE3) assessed as induction of SRC1 peptide recruitment after 1 hr by fluorescence polarization assay

Test [2] has as its target T2, Estrogen receptor beta (Homo sapiens, UniProt Q92731).
Description: (§2) Agonist activity at human N-terminal His6-tagged ERbeta receptor LBD expressed in Escherichia coli BL21 (DE3) assessed as induction of SRC1 peptide recruitment after 1 hr by fluorescence polarization assay
Test [3] addresses T1, Estrogen receptor. The source holds these as a separate data set.
Description: as §1
Test [4] concerns the target T2, Estrogen receptor beta. The source holds these as a separate data set.
Description: as §2
Test [5] deals with T3, Estrogen receptor (Homo sapiens) (UniProt P03372).
T3 sequence (whole entry): T1 sequence (P03372 whole entry)
Description: Transcriptional activation of human ERalpha receptor transfected in human U2OS cells assessed as increase of luciferase activity by estrogen response element-luciferase reporter gene assay relative to control. Type of test: cell-based. (In general: A reporter such as luciferase makes a cellular process visible.)

The target of test [6] is T2, Estrogen receptor beta. Briefly: Transcriptional activation of human ERbeta receptor transfected in human U2OS cells assessed as increase of luciferase activity by estrogen response element-luciferase reporter gene assay. The test is classed as cell-based.
Test [7] deals with T2, Estrogen receptor beta. Briefly: Transcriptional activation of human ERbeta receptor transfected in human U2OS cells assessed as increase of luciferase activity by estrogen response element-luciferase reporter gene assay relative to control. Type of test: cell-based.
Test [8] addresses T1, Estrogen receptor. Briefly: Transcriptional activation of human ERalpha receptor transfected in human U2OS cells assessed as increase of luciferase activity by estrogen response element-luciferase reporter gene assay. Type of test: cell-based.

T2 sequence (Q92731 whole entry): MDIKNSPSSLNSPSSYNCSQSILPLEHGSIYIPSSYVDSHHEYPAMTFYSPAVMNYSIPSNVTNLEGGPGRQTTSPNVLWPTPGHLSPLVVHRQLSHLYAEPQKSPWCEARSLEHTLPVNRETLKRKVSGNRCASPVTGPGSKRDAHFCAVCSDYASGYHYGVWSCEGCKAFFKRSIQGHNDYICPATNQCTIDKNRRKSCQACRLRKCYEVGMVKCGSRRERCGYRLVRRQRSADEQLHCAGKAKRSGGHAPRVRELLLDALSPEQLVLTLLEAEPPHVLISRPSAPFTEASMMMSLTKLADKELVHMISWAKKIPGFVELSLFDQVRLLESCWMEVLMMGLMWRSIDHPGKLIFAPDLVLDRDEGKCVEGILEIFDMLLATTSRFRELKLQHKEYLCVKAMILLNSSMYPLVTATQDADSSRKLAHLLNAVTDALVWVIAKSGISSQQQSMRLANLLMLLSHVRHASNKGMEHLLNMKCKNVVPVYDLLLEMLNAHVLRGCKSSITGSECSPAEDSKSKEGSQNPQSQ

What is called EC50 is the concentration at which the effect is half-maximal. As for `Br.Oc1ccc2c(c1)CCNC2`, the EC50 result at Estrogen receptor [1] is listed as “Not Active”. As to `O=C(N1CCc2cc(O)ccc2C1)C(Cl)(Cl)Cl`, the figures for the EC50 on Estrogen receptor beta [2] and on Estrogen receptor [3] were 3.2 µM and 6.2 µM, respectively. In the case of `Br.Oc1ccc2c(c1)CNCC2`, at Estrogen receptor [1], the EC50 entry is reported as “Not Active”.

With `CC(=O)N1CCc2ccccc2C1`, the half-maximal effective concentration (EC50) result on Estrogen receptor [1] and at Estrogen receptor beta [4] was “Not Active” throughout. Regarding `O=S(=O)(c1cccc2ccccc12)N1CCc2ccc(O)cc2C1`, the results for the EC50 at Estrogen receptor beta [2] and at Estrogen receptor [3] were 30 µM and 600 µM, respectively. Regarding `CS(=O)(=O)N1CCc2ccccc2C1`, the EC50 entry at Estrogen receptor [1] and on Estrogen receptor beta [4] was “Not Active” in each case.

Consider `COc1ccc2c(c1)CCN(C(=O)C(F)(F)F)C2`, for which the results for the EC50 on Estrogen receptor beta [2] and at Estrogen receptor [3] were 227 µM and 340 µM, respectively.

Turning to `O=C(N1CCc2ccccc2C1)C(F)(F)F`, the EC50 result on Estrogen receptor [1] and on Estrogen receptor beta [4] was “Not Active” each time.

In turn, `O=S(=O)(c1ccccc1)N1CCc2cc(O)ccc2C1` registered an EC50 at Estrogen receptor beta [2] of 1 µM. With `O=C(N1CCc2cc(O)ccc2C1)C(F)(F)F`, the EC50 at Estrogen receptor beta [2] was 0.9 µM; at Estrogen receptor [3] it was 5.2 µM. In the same order, the values of `CS(=O)(=O)N1CCc2cc(O)ccc2C1` are 20 µM and 170 µM.

On to `O=S(=O)(c1cccc2ccccc12)N1CCc2cc(O)ccc2C1`, for which the EC50 at Estrogen receptor beta [2] turned out to be 60 µM; on Estrogen receptor [3], 700 µM. Take `O=C(N1CCc2ccc(O)cc2C1)C(F)(F)F`: the results for the 50% effective concentration (EC50) on Estrogen receptor beta [2] and at Estrogen receptor [3] were 3.8 µM and 20 µM, respectively.

On to `CC(C)(C)OC(=O)N1CCc2cc(O)ccc2C1`, for which a half-maximal response at Estrogen receptor beta [2] (EC50) required 1.1 µM. On to `O=S(=O)(N1CCc2cc(O)ccc2C1)C(F)(F)F`, for which the EC50 at Estrogen receptor beta [2] was found to be 0.6 µM; on Estrogen receptor beta [6], 0.31 µM; at Estrogen receptor [3], 3 µM; on Estrogen receptor [8], 1.87 µM. Moreover, the fold change (FC) worked out at 33 in test [5] and 7 at Estrogen receptor beta [7]. For the compound `Br.Oc1cc2c(cc1O)CNCC2`, at Estrogen receptor [1], the EC50 entry is reported as “Not Active”.

As to `O=C(N1CCc2cc(O)ccc2C1)C(F)(F)Cl`, the results for the EC50 at Estrogen receptor beta [2] and on Estrogen receptor [3] were 1.6 µM and 2.3 µM, respectively. Turning to `CC(=O)N1CCc2cc(O)ccc2C1`, the EC50 entry at Estrogen receptor [1] and at Estrogen receptor beta [4] was “Not Active” throughout.
